1 substance from US9518976B2, “Methods for identifying or assaying for agents that increase beta-cell proliferation, insulin secretion, insulin sensitivity, glucose tolerance and decrease fat mass” (The Trustees of Columbia University in The City of New York, priority 2006, dated 2016) can be followed below.

Ends that are not written are not given here.

Assay [1] deals with Wild type mice. As to the kind of experiment: Osteocalcin subcutaneous infusion in wt mice: insulin sensitivity after insulin injection. Type of assay: in vivo, mouse. Particulars: 0.3 or 3 ng/hour s.c. for 18 days, then single insulin injection, 0-120 minutes, vs PBS. Here is the method:
FIG. 12. […] Wt mice were infused subcutaneously with indicated doses of recombinant osteocalcin or PBS for 18 days before receiving a single injection of insulin. Blood glucose was measured thereafter at indicated times.
(§1) For glucose tolerance test (GTT), glucose (2 g/kg body weight (BW)) was injected intraperitoneally (IP) after an overnight fast and blood glucose was monitored using blood glucose strips and the Accu-Check glucometer (Roche) at indicated times. For glucose stimulated insulin secretion test (GSIS), glucose (3 g/kg BW) was injected IP after an overnight fast; sera were collected from tails and insulin measured as described (Mauvais-Jarvis et al., 2000). For insulin tolerance test (ITT), mice were fasted for six hours, injected IP with insulin (0.2 U/kg BW) and blood glucose levels were measured at indicated times as described (Mauvais-Jarvis et al., 2002). ITT data are presented as percentage of initial blood glucose concentration. […] Streptozotocin ([…] single injection, Sigma) was injected IP and blood glucose measured as described above every 2 days thereafter. […] Food intake was measured using metabolic cages as the daily change of food weight. Energy expenditure was measured using metabolic cages connected to a calorimeter (Columbus Instrument). Heat values (Kcal/Hr) were recorded over 2 days and reported to each mouse BW. […]

Assay [2] deals with Wild type mice. As to the kind of experiment: Osteocalcin subcutaneous infusion in wt mice: glycemia. Type of assay: in vivo, mouse. As to conditions: 0.3, 1 and 3 ng/hour subcutaneous infusion for 28 days, vs PBS. Here is the method: FIG. 10. […] Indicated doses of recombinant osteocalcin or PBS were infused subcutaneously for 28 days in wt mice. Blood glucose was measured at indicated days.
An in vivo experiment was conducted in which the effect of undercarboxylated osteocalcin on glycemia was monitored. Wild type mice were infused with 3 different amounts of mouse recombinant undercarboxylated osteocalcin or placebo (PBS) subcutaneously for 28 days (0.3, 1 and 3 ng/hour).

Assay [3] is described as follows: Osteocalcin subcutaneous infusion in wt mice: body weight and gonadal fat pad mass. It counts as in vivo, mouse. Here is the method: FIG. 13. […] 1) Indicated doses of recombinant osteocalcin or PBS were infused subcutaneously for 28 days in wt mice. Body weight was recorded at indicated days. (2). Gonadal fat pad mass was measured after 28 days.
In another in vivo experiment, the effect of uncarboxylated osteocalcin on body weight and fat pad mass was monitored (FIG. 13). Wild type mice were infused subcutaneously for 28 days with PBS or uncarboxylated osteocalcin at 0.3, 1 or 3 ng/hour. […] (FIG. 13) Gonadal fat pad mass, measured after 28 days, decreased by about % 18 with 3 ng/hour uncarboxylated osteocalcin treatment.

A further assay relates to WT islets. As to the kind of experiment: Insulin and Cyclin D1 expression in WT islets cultured with uncarboxylated osteocalcin. Type of assay: cell-based, mouse. Particulars: 0.3 ng/ml (FIG. 7L). The text has this:
FIG. 7. Esp−/− Mice Are a Model of Increased Osteocalcin Bioactivity. (A-G) Comparison between 6-week-old WT, Esp−/, Ocn+/−, and Esp−/−; Ocn+/− mice. (A) Blood glucose levels. (B) Serum insulin levels. (C) Serum adiponectin levels. (D) GTT. (E) ITT. (F) GSIS test. (G) Quantification of the number of Ki67-immunoreactive cells in pancreatic islets. […] (J) Expression of Adiponectin in WT adipocytes cocultured with osteoblasts treated with warfarin or vehicle. (K) Expression of Adiponectin in WT adipocytes cultured in presence of vehicle or of 1 ng/ml of commercially available carboxylated osteocalcin (Immunotopics) or bacterially produced uncarboxylated osteocalcin. (L) Expression of Insulin and Cyclin D1 in WT islets cultured in presence of 0.3 ng/ml of bacterially produced uncarboxylated osteocalcin or vehicle. (M) Metabolic parameters and total serum osteocalcin levels in control and obese patients. (N-O) Quantification of carboxylated osteocalcin (HA-bound osteocalcin) in control and obese patients. In (A)-(C) and (G)-(L): *p<0.05 versus WT (Student's t test); in (D)-(F), °p<0.05 versus WT and *p % 0.001 versus WT (ANOVA followed by post hoc analysis).
Islets were isolated using a Histopaque gradient (1077, Sigma). In brief, after clamping the common bile duct at its entrance to the duodenum, 1 mg/ml collagenase P (Sigma) in M199 medium (GIBCO) was injected into the duct. […]

Assay [4] deals with Wild type mice. As to the kind of experiment: Osteocalcin subcutaneous infusion in wt mice: glucose tolerance after glucose injection. Type of assay: in vivo, mouse. As to conditions: 0.3 or 3 ng/hour s.c. for 14 days, then single glucose injection, 120 minute period, vs PBS. As for the experimental part: FIG. 11. […] Wt mice were infused subcutaneously with indicated doses of recombinant osteocalcin or PBS for 14 days before receiving a single injection of glucose. Blood glucose was measured thereafter at indicated times.
as §1

[5] abbreviates: listed as recombinant osteocalcin.

For the substance “uncarboxylated osteocalcin: Recombinant mouse osteocalcin bacterially produced, cleaved from GST with thrombin; completely undercarboxylated at all three sites (YLGASVPSPDPLEPTREQCELNPACDELSDQYGLKTAYKRIYGITI; not fully specified; ends and bridges not checked; UniProt P86546 50-95, looked up)”, the insulin sensitivity result was “increased” in the assay on Wild type mice [1] and “increases insulin sensitivity” in the assay with Wild type mice [1] (setting [5]). Moreover, the figures for the “glycemia (blood glucose)” value in the assay with Wild type mice [2] (setting [5]) and with Wild type mice [2] (listed as undercarboxylated osteocalcin) were “decreases glycemia” and “decreased glycemia”, respectively. For the same substance, the “gonadal fat pad mass decrease” value in assay [3] (wild type mice, 3 ng/hour s.c., after 28 days) is approximately 18%. In addition, in assay [3] (wild type mice, 0.3, 1 or 3 ng/hour s.c. for 28 days, highest dose most effective), the body weight entry is listed as “slightly reduced”. Besides, in assay [3] (wild type mice, the other doses (0.3, 1 ng/hour), 28 days), the “gonadal fat pad mass” value is given as “did not significantly decrease”. Also, the fat mass result in assay [3] (wt mice, indicated doses s.c. for 28 days (FIG. 13 legend)) is “decreases fat mass”. Further, the “expression of Cyclin D1, marker of beta-cell proliferation” value in the assay with WT islets is given as “induced”. Besides, the insulin expression result in the assay on WT islets is “induced”. For the same substance, the glucose tolerance entry with Wild type mice [4] is “increased glucose tolerance”; with Wild type mice [4] (setting [5]), “increases glucose tolerance”.
